Experimental data: PMC11591356, “Immunomodulatory Effects of the Tobacco Defensin NaD1” (Antibiotics, 2024)
Ends that are not written are not given here.

How the values were obtained:
PBMCs = experiment: Cytotoxicity assay, resazurin method, PBMCs; type: cell-based, human; conditions: for Cell viability: PBMCs, 24 h, resazurin
Excerpt: Peripheral blood mononuclear cells (PBMCs) from healthy donors were purchased from American Type Culture Collection (ATCC PCS-800-011). Primary monocytes were isolated from PBMCs by adherence to the plastic surface. For that, PBMCs were thawed, resuspended in RPMI-1640 culture medium (Corning, Corning, NY, USA) without serum at a concentration of 2 × 10^6 cells/mL, seeded into the wells of a 24-well plate and placed in a humidified CO2-intubator (CellXpert C170i, Eppendorf, Hamburg, Germany) for 1 h. After that, non-adherent cells were removed from the wells and attached monocytes were thoroughly washed with PBS and cultured in a CO2-intubator in complete RPMI-1640 containing 10% human serum (HS Type AB, Capricorn Scientific, Ebsdorfergrund, Germany) and 1×antibiotic-antimycotic (1×AA) solution (Sigma, St. Louis, MO, USA).
(§1) The cytotoxic effects of the tobacco defensin NaD1 towards PBMCs or Caco-2 cells were investigated in 96-well plates using the resazurin method as previously described. In brief, 4 × 10^5 per well Caco-2 cells not in a monolayer as well as Caco-2 cells in a monolayer in DMEM/F12 (1:1) medium with 10% FBS or 2 × 10^6 PBMCs per well in RPMI-1640 also with 10% FBS were incubated with serial dilutions of NaD1 at final concentrations from 0.39 to 50 μM or from 2.1 to 180 μM for 24 h. After that, resazurin (Sigma, St. Louis, MO, USA) was added at a final concentration of 70 µM and the plates were incubated overnight (16–18 h). Untreated cells and cells treated by non-ionogenic detergent Triton X-100 were used as negative and positive controls, respectively. […] The cell viability was estimated by resorufin fluorescence registered at […] via the following equation: cell viability (%) = (Fsample/Fcontrol) × 100%. Experiment was carried out twice in duplicate.

[1] = tested on: Caco-2 cells in a monolayer; experiment: Cytotoxicity assay, resazurin method, Caco-2 cells in a monolayer; type: cell-based, human; conditions: 24 h; for Cell viability: Caco-2 monolayer
Procedure: as §1

[2] = tested on: Candida albicans ATCC 18804; experiment: Antifungal microdilution assay with or without LPS or zymosan; type: cell-based
Procedure: The antifungal assay was performed by the microdilution method using 96-well microplates as described. Briefly, C. albicans ATTC 18804 cells in stock were inoculated onto Sabouraud agar plates with 2% glucose and incubated for 24 h at 37 °C. After replating, cells were inoculated in Sabouraud broth and cultured at 37 °C for 2 h. The cell concentration was determined using a LUNA-II cell counter (Logos Biosystems, Anyang-si, Republic of Korea). Yeast cells in Sabouraud broth diluted to concentration of 4 × 10^4 cells/mL were mixed with equal volumes of serial two-fold dilutions of the peptides in water and the plates were incubated at 30 °C for 24 h. The final peptide concentrations in the wells were 25, 12.5, 6.25, 3.13, 1.56, 0.78 and 0.39 μM. Controls without peptides were also tested. […] Yeast growth was assessed using an inverted light microscope and also by measuring absorbance at 630 nm. The minimum inhibitory concentrations IC50 and MIC were defined as the lowest peptide concentrations inhibiting fungal growth by at least 50 and 100%, respectively. […] The MFCs corresponded to the minimal peptide concentration, in which no colony growth was observed.
To estimate the effects of LPS and zymosan on the antifungal activity of NaD1 and LL-37, these PAMPs were added in culture media at concentrations of 10, 40 and 100 μg/mL [39, 40]. All of the experiments were performed twice in triplicate.

Substance: NaD1: Recombinant tobacco floral defensin NaD1 (UNIPROT Q8GTM0), obtained by heterologous expression in E. coli; FITC-labeled in the permeability assay (RECKTESNTFPGICITKPPCRKACISEKFTDGHCSKILRRCLCTKPC; cysteine pairing not given here; also: FITC label; UniProt Q8GTM0 26-72, looked up)
- Cell viability (PBMCs; peptide 50 µM, twice in duplicate): approximately 90%
- Cell viability (PBMCs; peptide 180 μM): more than 50%
- Cytotoxic effect against the tested immune and epithelial cells (PBMCs; peptide 12.5 µM, PBMCs and Caco-2): did not exhibit a cytotoxic effect
- Cell viability ([1]; peptide 25 µM): approximately 85%
- Cell viability ([1]; peptide 50 µM): ~70%
- Cytotoxic effect on Caco-2 cells in a monolayer ([1]; peptide 12.5 µM): no effects
- IC50 ([2]; 10 μg/mL LPS): 3.12 to 6.25 µM
- MFC ([2]; 10 μg/mL LPS): 12.5 µM
- MIC ([2]; 10 μg/mL LPS): 6.25 µM
- IC50 ([2]; 10 μg/mL Zymosan): 3.12 to 6.25 µM
- MFC ([2]; 10 μg/mL Zymosan): 12.5 µM
- MIC ([2]; 10 μg/mL Zymosan): 6.25 µM
- IC50 ([2]; 40 μg/mL LPS): 3.12 to 6.25 µM
- MFC ([2]; 40 μg/mL LPS): 12.5 µM
- MIC ([2]; 40 μg/mL LPS): 6.25 µM
- IC50 ([2]; 40 μg/mL Zymosan): 3.12 to 6.25 µM
- MFC ([2]; 40 μg/mL Zymosan): 25 µM
- MIC ([2]; 40 μg/mL Zymosan): 6.25 µM
- IC50 ([2]; 100 μg/mL LPS): 3.12 to 6.25 µM
- MFC ([2]; 100 μg/mL LPS): 12.5 µM
- MIC ([2]; 100 μg/mL LPS): 12.5 µM
- IC50 ([2]; 100 μg/mL Zymosan): 3.12 to 6.25 µM
- MFC ([2]; 100 μg/mL Zymosan): 25 µM
- MIC ([2]; 100 μg/mL Zymosan): 6.25 µM
- MIC ([2]; without PAMP, Sabouraud broth, 30 °C, 24 h, 100% growth inhibition): 6.25 µM
- IC50 ([2]; without PAMP, Sabouraud broth, 30 °C, 24 h, lowest concentration inhibiting growth by at least 50%, twice in triplicate): 3.12 to 6.25 µM
- MFC ([2]; without PAMP, plating on Sabouraud agar, 37 °C, 24 h, no colony growth): 12.5 µM
